In patent US12303845B2, “Method for crystallization of active pharmaceutical ingredients” (Nanoform Finland Oyj, priority 2023, dated 2025):

Legend:
Type in all cases: physicochemical
[1] = Crystallization of amorphous nanosized API in aqueous polymer solution, polymorph/crystallinity by XRD; parameters: key to Polymorph: bulk = same as the API before conversion to amorphous nanoparticles
Description: XRPD measurements were carried out using the Malvern PANalytical Empyrean X-ray diffractometer equipped with a Cu Kα (1.54 Å) source, MultiCore optics and a solid-state PIXcel3D detector. By using Kapton tape the samples were attached onto aluminum or polycrystalline silicon sample holders. Dried slurries were measured without further sample preparation under Kapton tape and suspensions were filtered, dried, and filters were attached with double sided tape. The samples were measured in the reflection geometry in a spinning measurement stage. The measurement range was 5-40 (°2θ). The step size and time per step values were varied depending on the counts per second obtained.
Determination of crystallization of API nanoparticles was evaluated via kinetic study of suspension. Accordingly, XRD measurement was done for suspension in different time points.
Amorphous API nanoparticles (budesonide, ezetimibe, ceritinib, and apalutamide) were added as dry powders to aqueous polymer solutions. The mixtures were either • (i) mixed with a magnetic stirrer and ultrasonicated until API was completely surrounded by water (wetted). The stirring was continued for 16-24 h at ambient temperature or • (ii) blended with a metal spatula and allowed to stay at room temperature for 18-24 h.
The suspensions formed were analyzed after 18-24 h. SEM and XRD samples were prepared as described above.

[2] = SEM of crystallized suspensions and dried products (crystal size grade, particle size); parameters: key: 5 = nanocrystals; 1 = large crystals
Description: SEM images were captured using the Zeiss Sigma 300 VP SEM instruments. Samples were dispersed into water and filtered with 0.1 μm filter. Filters were dried, transferred to SEM sample holders, and coated with a 5 nm thick layer of platinum. Amorphous API nanoparticles (budesonide, ezetimibe, ceritinib, and apalutamide) were added as dry powders to aqueous polymer solutions. The mixtures were either • (i) mixed with a magnetic stirrer and ultrasonicated until API was completely surrounded by water (wetted). The stirring was continued for 16-24 h at ambient temperature or • (ii) blended with a metal spatula and allowed to stay at room temperature for 18-24 h. The suspensions formed were analyzed after 18-24 h. SEM and XRD samples were prepared as described above. Suspension comprising nanosized APIs prepared as shown above were dried in a vacuum desiccator overnight. The solid materials were grounded to produce powders. The powders were analyzed on XRD and SEM. The powders comprising nanosized APIs were used in the stability, permeability, and dissolution tests as described above.

[3] = Stability tests of solid material (SEM, XRD, HPLC); conditions: materials prepared according to the disclosure; up to T30; crystallinity confirmed by XRD
Description: Solid material was weighted in separate vials (approx. 150 mg of material in each) and transferred to stability chambers. Three conditions were applied: ambient conditions (material in closed vial at RT), 25° C./65% RH and 40° C./75% RH. Material was analyzed at T0 as freshly prepared, T7 ([…]), T14 ([…]) and T30 (30 d) after the initiation of stability studies. SEM, XRD and dissolution/permeability studies were used to evaluate the crystallinity, particle size/morphology and performance of the material.

[4] = HPMC 1 wt.-%, SLS 0.2 wt.-%, mAPI 25 mg/g
[5] = HPMC 1 wt.-%, no SLS, mAPI 25 mg/g
[6] = HPMC 2.5 wt.-%, SLS 0.2 wt.-%, mAPI 25 mg/g
[7] = HPMC 2.5 wt.-%, no SLS, mAPI 25 mg/g
[8] = HPMC 5 wt.-%, SLS 0.2 wt.-%, mAPI 100 mg/g
[9] = HPMC 5 wt.-%, SLS 0.2 wt.-%, mAPI 150 mg/g
[10] = HPMC 5 wt.-%, SLS 0.2 wt.-%, mAPI 200 mg/g
[11] = HPMC 5 wt.-%, no SLS, mAPI 100 mg/g
[12] = PVPVA 1 wt.-%, SLS 0.2 wt.-%, mAPI 25 mg/g
[13] = PVPVA 1 wt.-%, no SLS, mAPI 25 mg/g polymer solution
[14] = PVPVA 2.5 wt.-%, SLS 0.2 wt.-%, mAPI 25 mg/g
[15] = PVPVA 2.5 wt.-%, no SLS, mAPI 25 mg/g
[16] = PVPVA 5 wt.-%, SLS 0.2 wt.-%, mAPI 25 mg/g
[17] = PVPVA 5 wt.-%, no SLS, mAPI 25 mg/g
[18] = PVPVA 10 wt.-%, SLS 0.2 wt.-%, mAPI 25 mg/g
[19] = PVPVA 10 wt.-%, no SLS, mAPI 25 mg/g
[20] = PVPVA 20 wt.-%, no SLS, mAPI 200 mg/g
[21] = PVPVA 25 wt.-%, SLS 0.2 wt.-%, mAPI 500 mg/g
[22] = PVPVA 25 wt.-%, no SLS, mAPI 250 mg/g
[23] = PVPVA 25 wt.-%, no SLS, mAPI 500 mg/g
[24] = PVPVA 45 wt.-%, SLS 0.2 wt.-%, mAPI 450 mg/g
[25] = PVPVA 45 wt.-%, no SLS, mAPI 450 mg/g
[26] = Poloxamer 407 1 wt.-%, SLS 0.2 wt.-%, mAPI 25 mg/g
[27] = Poloxamer 407 1 wt.-%, no SLS, mAPI 25 mg/g
[28] = Poloxamer 407 2.5 wt.-%, SLS 0.2 wt.-%, mAPI 25 mg/g
[29] = Poloxamer 407 2.5 wt.-%, no SLS, mAPI 25 mg/g
[30] = Poloxamer 407 5 wt.-%, SLS 0.2 wt.-%, mAPI 25 mg/g
[31] = Poloxamer 407 5 wt.-%, no SLS, mAPI 25 mg/g
[32] = Poloxamer 407 15 wt.-%, SLS 0.2 wt.-%, mAPI 150 mg/g
[33] = Poloxamer 407 15 wt.-%, SLS 0.2 wt.-%, mAPI 300 mg/g
[34] = Poloxamer 407 15 wt.-%, SLS 0.2 wt.-%, mAPI 450 mg/g
[35] = Poloxamer 407 15 wt.-%, no SLS, mAPI 150 mg/g
[36] = Poloxamer 407 15 wt.-%, no SLS, mAPI 300 mg/g
[37] = Poloxamer 407 15 wt.-%, no SLS, mAPI 450 mg/g
[38] = HPMC 5 wt.-%, SLS 0.2 wt.-%, mAPI 25 mg/g
[39] = HPMC 5 wt.-%, no SLS, mAPI 25 mg/g
[40] = HPMC 5 wt.-%, no SLS, mAPI 150 mg/g
[41] = PVP K30 1 wt.-%, no SLS, mAPI 25 mg/g
[42] = PVP K30 2.5 wt.-%, no SLS, mAPI 25 mg/g
[43] = PVP K30 5 wt.-%, no SLS, mAPI 25 mg/g
[44] = PVPVA 15 wt.-%, SLS 0.2 wt.-%, mAPI 150 mg/g
[45] = PVPVA 15 wt.-%, no SLS, mAPI 150 mg/g
[46] = PVPVA 25 wt.-%, SLS 0.2 wt.-%, mAPI 250 mg/g

CNC(=O)c1ccc(N2C(=S)N(c3cnc(C#N)c(C(F)(F)F)c3)C(=O)C23CCC3)cc1F [Apa, apalutamide]
Polymorph [1, 4]: new
Polymorph [1, 5]: new
Polymorph [1, 6]: new
Polymorph [1, 7]: new
Polymorph [1, 8]: new
Polymorph [1, 9]: new
Polymorph [1, 10]: new
Polymorph ([1]; HPMC 5 wt.-%, SLS 0.2 wt.-%, mAPI 250 mg/g): new
Polymorph ([1]; HPMC 5 wt.-%, SLS 0.2 wt.-%, mAPI 300 mg/g): new
Polymorph [1, 11]: amorphous
Polymorph [1, 12]: new
Polymorph [1, 13]: new
Polymorph [1, 14]: new
Polymorph [1, 15]: new
Polymorph [1, 16]: new
Polymorph [1, 17]: new
Polymorph [1, 18]: new
Polymorph [1, 19]: new
Polymorph ([1]; PVPVA 15 wt.-%, no SLS, mAPI 450 mg/g): amorphous
Polymorph ([1]; PVPVA 15 wt.-%, no SLS, mAPI 600 mg/g): amorphous
Polymorph [1, 20]: new
Polymorph ([1]; PVPVA 20 wt.-%, no SLS, mAPI 600 mg/g): amorphous
Polymorph [1, 21]: new
Polymorph [1, 22]: new
Polymorph [1, 23]: new
Polymorph [1, 24]: new
Polymorph [1, 25]: new
Polymorph [1, 26]: Form B
Polymorph [1, 27]: Form B
Polymorph [1, 28]: Form B
Polymorph [1, 29]: Form B
Polymorph [1, 30]: Form B
Polymorph [1, 31]: Form B
Polymorph [1, 32]: Form B
Polymorph [1, 33]: Form B
Polymorph [1, 34]: Form B
Polymorph [1, 35]: Form B
Polymorph [1, 36]: Form B
Polymorph [1, 37]: Form B
Grade (SEM, visual inspection) [2, 4]: 5
Grade (SEM, visual inspection) [2, 5]: 5
Grade (SEM, visual inspection) [2, 6]: 5
Grade (SEM, visual inspection) [2, 7]: 4
Grade (SEM, visual inspection) [2, 8]: 5
Grade (SEM, visual inspection) [2, 9]: 5
Grade (SEM, visual inspection) [2, 10]: 5
Grade (SEM, visual inspection) [2, 12]: 4
Grade (SEM, visual inspection) [2, 13]: 4
Grade (SEM, visual inspection) [2, 14]: 4
Grade (SEM, visual inspection) [2, 15]: 4
Grade (SEM, visual inspection) [2, 16]: 4
Grade (SEM, visual inspection) [2, 17]: 4
Grade (SEM, visual inspection) [2, 18]: 5
Grade (SEM, visual inspection) [2, 19]: 4
Grade (SEM, visual inspection) [2, 20]: 5
Grade (SEM, visual inspection) [2, 21]: 5
Grade (SEM, visual inspection) [2, 22]: 5
Grade (SEM, visual inspection) [2, 23]: 5
Grade (SEM, visual inspection) [2, 24]: 5
Grade (SEM, visual inspection) [2, 25]: 5
Grade (SEM, visual inspection) [2, 26]: 2
Grade (SEM, visual inspection) [2, 27]: 2
Grade (SEM, visual inspection) [2, 28]: 2
Grade (SEM, visual inspection) [2, 29]: 2
Grade (SEM, visual inspection) [2, 30]: 2
Grade (SEM, visual inspection) [2, 31]: 2
Grade (SEM, visual inspection) [2, 32]: 1
Grade (SEM, visual inspection) [2, 33]: 1
Grade (SEM, visual inspection) [2, 34]: 1
Grade (SEM, visual inspection) [2, 35]: 1
Grade (SEM, visual inspection) [2, 36]: 1
Grade (SEM, visual inspection) [2, 37]: 1

CCCC1O[C@@H]2C[C@H]3[C@@H]4CCC5=CC(=O)C=C[C@]5(C)[C@H]4[C@@H](O)C[C@]3(C)[C@]2(C(=O)CO)O1 (stereo partly drawn) [Bude, budesonide]
Polymorph [1, 4]: bulk
Polymorph [1, 5]: bulk
Polymorph [1, 6]: bulk
Polymorph [1, 7]: bulk
Polymorph [1, 38]: bulk
Polymorph [1, 8]: bulk
Polymorph [1, 9]: bulk
Polymorph [1, 39]: bulk
Polymorph [1, 11]: bulk
Polymorph [1, 40]: bulk
Polymorph [1, 41]: bulk
Polymorph [1, 42]: bulk
Polymorph [1, 43]: bulk
Polymorph [1, 12]: bulk
Polymorph [1, 13]: bulk
Polymorph [1, 14]: bulk
Polymorph [1, 15]: bulk
Polymorph [1, 16]: bulk
Polymorph [1, 17]: bulk
Polymorph [1, 44]: bulk
Polymorph [1, 45]: bulk
Polymorph [1, 20]: bulk
Polymorph [1, 46]: bulk
Polymorph [1, 22]: bulk
Polymorph [1, 25]: bulk
Polymorph [1, 27]: bulk
Polymorph [1, 29]: buik
Polymorph [1, 31]: bulk
Grade (SEM, visual inspection) [2, 4]: 5
Grade (SEM, visual inspection) [2, 5]: 5
Grade (SEM, visual inspection) [2, 6]: 5
Grade (SEM, visual inspection) [2, 7]: 5
Grade (SEM, visual inspection) [2, 38]: 5
Grade (SEM, visual inspection) [2, 8]: 5
Grade (SEM, visual inspection) [2, 9]: 5
Grade (SEM, visual inspection) [2, 39]: 5
Grade (SEM, visual inspection) [2, 11]: 5
Grade (SEM, visual inspection) [2, 40]: 5
Grade (SEM, visual inspection) [2, 41]: 3
Grade (SEM, visual inspection) [2, 42]: 3
Grade (SEM, visual inspection) [2, 43]: 3
Grade (SEM, visual inspection) [2, 12]: 4
Grade (SEM, visual inspection) [2, 13]: 3
Grade (SEM, visual inspection) [2, 14]: 4
Grade (SEM, visual inspection) [2, 15]: 2
Grade (SEM, visual inspection) [2, 16]: 4
Grade (SEM, visual inspection) [2, 17]: 2
Grade (SEM, visual inspection) [2, 44]: 5
Grade (SEM, visual inspection) [2, 45]: 5
Grade (SEM, visual inspection) [2, 20]: 5
Grade (SEM, visual inspection) [2, 46]: 5
Grade (SEM, visual inspection) [2, 22]: 5
Grade (SEM, visual inspection) [2, 25]: 5
Grade (SEM, visual inspection) [2, 27]: 1
Grade (SEM, visual inspection) [2, 29]: 1
Grade (SEM, visual inspection) [2, 31]: 1
Stability of nanocrystalline material over the stability study [3]: stable over the whole stability study
